Activity calls are given as the source filed them.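 The calls were made as follows: active = compounds giving half or more protection of infected cells from virus-caused growth loss, again on retest; inactive = the rest.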
Tested on: CEM cells HIV-1 protection, formazan growth assay
Assay: NCI AIDS Antiviral Assay
Settings: for IC50: measured here: growth of uninfected CEM cells
Summary of the method: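 Human CEM cells, uninfected and HIV-1-infected, exposed to five drug concentrations; growth measured by soluble formazan assay and scored as percent protection from infection, with protecting compounds retested.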

Row | Compound | EC50 [µM] | IC50 [µM] | outcome
1 | CC(C)(C)[Si](C)(C)OC1C(n2ccc(=O)[nH]c2=O)OC(COC(c2ccccc2)(c2ccccc2)c2ccccc2)C1(CC#N)Sc1ccccc1 (configuration not stated) | > 200 | > 200 | 
2 | CCN(CC)C(=O)COc1cc2c(O)c3c(O)c(C)c4c(c13)C(=O)C(C)(O/C=C/C(OC)C(C)C(O)C(C)C(O)C(C)C(O)C(C)/C=C/C=C(\C)C(=O)N2)O4 (configuration not stated) | > 200 | 29.5 | 
3 | COc1cccc([B-]23OCC[N+]2(CNC(=O)C2=C(O)C4(O)C(=O)C5=C(O)c6c(O)cccc6C(C)(O)C5CC4C(N(C)C)C2=O)CCO3)c1 (configuration not stated) | > 38 | > 38 | 
4 | CC(=O)N/N=C(/C)c1cccs1 | > 200 | > 200 | 
5 | Cn1c(=O)c2[nH]c(N/N=N/c3nncs3)nc2n(C)c1=O | > 200 | > 200 | 
6 | COc1ccc(/C(C)=N\N)cc1 | > 200 | > 200 | 
7 | c1cc[c]([Sn]([O]c2cccc3cccnc23)([c]2ccccc2)[c]2ccccc2)cc1 |  |  | inactive
8 | CCOC(=O)Nc1n[nH]nc1Cl | > 200 | > 200 | 
9 | CC(=O)c1cccc(C(C)=O)c1N=Cc1ccc(Cl)cc1 | > 200 | 13.2 | 
10 | CCc1cccc(C)c1NC(=O)C(=O)Cc1nc2ccccc2s1 |  |  | inactive
11 | O=C(O)Cn1c(=O)ccc2ccccc21 | > 200 | > 200 | 
12 | C=CC1C2=C(C(=O)NCC2)C2OC(O)C3=C(CCNC3=O)C2C1C (configuration not stated) |  |  | inactive
13 | CN(C)c1ccc(/C=N\N2C(=O)c3ccccc3C2=O)cc1 | > 123 | > 123 | 
14 | Cc1cn(C2CC(NC(=O)N(C)O)C(CO[Si](C)(C)C(C)(C)C)O2)c(=O)[nH]c1=O (configuration not stated) | > 200 | 107 | 
15 | C=C(c1ccc(OC)c(OC)c1)c1nccc2cc(OC)c(OC)cc12 | > 74.1 | 12.6 | 
16 | N#C/C(=C\c1ccc(O)c(O)c1)C(=O)N[C@@H]1CCC[C@@H](NC(=O)/C(C#N)=C/c2ccc(O)c(O)c2)C1 | > 200 | 12.3 | 
17 | CC1/C=C/[C@@]2(C)CCC(C(C)(C)O)C2C(O)C[C@](C)(O)/C=C/C1 (some centres not stated) |  |  | inactive
18 | Cc1[nH]n(-c2nc3c(c(=O)[nH]2)CCC3)c(=O)c1CCO | > 200 | 182 | 
19 | CNC1=C(C)C(=O)C(=O)C([C@H](C)CCC=C(C)C)=C1O | > 200 | 6.17 | 
20 | O=C1C(=Nc2ccccc2)Oc2cc(O)ccc21 | > 200 | 17.8 | 
21 | [N-]=[N+]=NC1=C(C(=O)c2ccccc2)C(=O)c2cccc3cccc1c23 | > 100 | 49 | 
22 | Nc1ccc(/C=C/c2ccc3ncccc3c2)cc1 | 0.0631 | > 200 | 

Row | Compound | EC50 [µM] | IC50 [µM] | outcome
23 | NS(=O)(=O)c1ccc(N=Cc2ccccc2O)cc1 | > 200 | > 200 | 
24 | CC(=O)Oc1cc(-c2oc3cc(OC(C)=O)c(C4OC(CO)C(O)C(O)C4O)c(OC(C)=O)c3c(=O)c2O)c(OC(C)=O)cc1O (configuration not stated) | > 200 | > 200 | 
25 | Cc1ccc(NC(Nc2ccc(C)cc2C)=C(/C=C(\Cl)[N+](=O)[O-])[N+](=O)[O-])c(C)c1 | > 200 | 2.51 | 
26 | O=c1n(CC2CS2)c2ccccc2n1CC1CS1 (configuration not stated) | > 339 | 6.61 | 
27 | Nc1ccc(C(=O)CC2(O)C(=O)Nc3c(Cl)cc(Cl)cc32)cc1 (configuration not stated) | > 33.9 | 18.6 | 
28 | C=CCCC(=O)CC(O)(C(F)(F)F)C(F)(F)F |  |  | inactive
29 | Cc1cccc(C(C)(C)C)c1NC(=O)C(C#N)C1=C(Cl)C(=O)c2ccccc2C1=O (configuration not stated) | > 107 | 22.9 | 
30 | CCCCCC=C(c1cc(C)c(OC)c(C(=O)OC)c1)c1cc(C)c(OC)c(C(=O)OC)c1 | > 51.3 | 25.7 | 
31 | COc1ccc(C2OCCN2C)cc1 (configuration not stated) | > 200 | > 200 | 
32 | c1ccc(C(c2ccccc2)[P+](c2ccccc2)(c2ccccc2)c2ccccc2)cc1 | > 20 | 0.372 | 
33 | O=c1c2ccccc2nc(N/N=C/c2ccc(Cl)cc2)n1-c1ccccc1 | > 200 | > 200 | 
34 | CSC(=O)c1sc(SC)[n+](-c2ccccc2)c1O | > 200 | 10.2 | 
35 | CC(=O)NCCSSSCCNC(C)=O | > 200 | 0.891 | 
36 | O=C(N/N=C/C=C/c1ccccc1)c1ccncc1 | > 200 | 33.1 | 
37 | NC(CSCCSCC(N)C(=O)O)C(=O)O (configuration not stated) | > 10 | > 10 | 
38 | N#Cc1nc(C2SCCCS2)oc1N | > 200 | > 200 | 
39 | Cc1c(Cl)cccc1N1C(=O)C(Cl)=C(Cl)C1=O |  |  | inactive
40 | OCC(O)c1cc(I)c(Oc2ccc(O)cc2)c(I)c1 (configuration not stated) | > 200 | > 200 | 
41 | COc1ccccc1NC(=S)NN=C(C)c1cccc(C(C)=NNC(=S)Nc2ccccc2OC)n1 | > 200 | 34.7 | 
42 | NNC(=S)N/N=C/C(Cl)=C(\Cl)C(=O)O | > 28.2 | > 28.2 | 
43 | CCOC(=O)c1c(C(F)(F)F)c2cc(C(=O)C(F)(F)F)c3ccccc3c2n1C | > 42.7 | > 42.7 | 
44 | CC(=O)NCCCCCCNC(C)=O | > 1260 | > 1260 | 

Row | Compound | EC50 [µM] | IC50 [µM] | outcome
45 | COC(=O)C1(C(=O)OC)C2(CCCC2)C1(C(=O)OC)C(=O)OC | > 200 | > 200 | 
46 | COc1ccc2c(c1)[n+]([O-])c(/C(C)=N/NC(=O)c1ccccc1O)c(C)[n+]2[O-] | > 245 | > 245 | 
47 | CCOC(=O)c1sc(SC)nc1NC(=O)c1ccc(Cl)cc1 | > 200 | > 200 | 
48 | Brc1ccc(OCc2ccccc2)c2ccccc12 | > 200 | 63.1 | 
49 | c1ccc(Cc2nnc3n2CCC(c2ccccc2)S3)cc1 (configuration not stated) | > 200 | > 200 | 
50 | C/C(C=O)=C\c1ccc([N+](=O)[O-])cc1 | > 135 | 75.9 | 
51 | Cc1cc(O)c(/C=N/C(=S)Nc2cccc(C)c2C)c(=O)o1 |  |  | inactive
52 | CC(=O)OC1=C2CC3(C)OC(=O)CC(C)(C)C3=CC=C2C=C(C(C)C)C1=O (configuration not stated) |  |  | inactive
53 | O=c1c(O)c(-c2ccc(O)cc2)oc2cc(O)cc(O)c12 | > 97.7 | 51.3 | 
54 | CC(C)(C)C1=C(Br)C(OC(=O)C(F)(F)F)(C(C)(C)C)OP1(=O)c1ccccc1 (configuration not stated) | > 200 | 74.1 | 
55 | COc1ccc2c(c1)c(=O)c(C(=O)O)cn2CCCOc1ccc([N+](=O)[O-])cc1 |  |  | inactive
56 | O=C1NC(N2CCCC(CO)C2)=N/C1=C\c1cccs1 (configuration not stated) | > 200 | > 200 | 
57 | Cc1ccc(S(=O)(=O)NC(=O)NCCCSSCCCNC(=O)NS(=O)(=O)c2ccc(C)cc2)cc1 | > 200 | > 200 | 
58 | CN(C)CC(=O)N1CC(COS(C)(=O)=O)c2ccc(O)cc21 (configuration not stated) | > 20 | 3.47 | 
59 | N=c1c2ccccc2c2ccccc2n1O | > 200 | > 100 | 
60 | Cn1cc(C(=O)c2ccccc2)ccc1=O | > 617 | 479 | 
61 | CN(C)/C(N)=N/C(N)=S |  |  | inactive
62 | NC1=NS(=O)(=O)N=C(N)C1=NNc1ccccc1 | > 933 | 141 | 
63 | Nc1ncnc2c1ncn2C(Cl)=C(Cl)Cl | > 200 | 115 | 
64 | Cn1c(N)c(C(N)=O)[nH]c1=S | > 200 | > 200 | 
65 | O=c1nc2c(c(-c3ccc(Br)cc3)[nH]1)COC/C2=C\c1ccc(Br)cc1 | > 200 | 75.9 | 
66 | Cc1cc(Cl)cc2c1NC(=O)C2(O)C(C(=O)c1ccccc1)c1ccccc1 (configuration not stated) | > 91.2 | > 91.2 | 

Source: PubChem BioAssay AID179 (DTP/NCI, 2004)
